This passage reports DC50 and Dmax results from patent US20250206732A1, “COMPOUNDS AND METHODS FOR THE TARGETED DEGRADATION OF KRAS” (Arvinas Operations, Inc., priority 2022, published 2025).

The target of one assay is T1, SW1573 HiBiT-KRASG12C (Homo sapiens, UniProt P01116, G12C).
T1 construct: expressed in transfected cells
Kind of assay: HiBiT degradation assay (G12C), SW1573 HiBiT-KRASG12C cells.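 On DC50: Letter grades: C is 1000 to 3000 nM and D is above 3000 nM.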 The conditions noted are these: 24 hours treatment; for DC50: HiBiT luminescence; for Dmax: maximum degradation observed. The format is cell-based. The essentials:
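SW1573 cells expressing N-terminal HiBiT-KRASG12C (clone E6) treated 24 h at 37 °C with 10 μM to 508 pM compound in 0.5% DMSO, triplicate. HiBiT lytic luminescence normalized to DMSO, 4-parameter fit gives DC50 and Dmax; points with ≥50% alamar blue viability loss excluded.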
(With HiBiT, luminescence reflects the tagged protein that the partner subunit can reach.)

The next assay addresses T2, AsPC-1 HiBiT-KRASG12D (Homo sapiens, UniProt P01116, G12D).
T2 construct: insert the HiBiT tag onto the N-terminus of one or more of the endogenous KRAS alleles; endogenous in cells; host or cells: AsPC-1 (ATCC CRL-1682), CRISPR-Cas9 knock-in clone, one tagged allele
The experiment in a line: HiBiT degradation assay (G12D), AsPC-1 HiBiT-KRASG12D cells. The format is cell-based. The conditions noted are these: 24 hours treatment; for Dmax: ASPC1, AsPC-1 HiBiT-KRASG12D cells, maximum degradation observed; for DC50: AsPC-1 HiBiT-KRASG12D cells, HiBiT luminescence. The essentials: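 AsPC-1 cells (homozygous G12D) carrying a CRISPR knock-in N-terminal HiBiT tag on endogenous KRAS were treated with compounds for 24 hours at 37° C, 5% CO2, in triplicate. Alamar blue viability was read first, then cells were washed and lysed with Nano-Glo HiBiT reagent for 45 minutes before luminescence reading.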

As a reminder, the DC50 is the midpoint of the concentration-degradation curve. Low readings indicate degradation at low concentration, high ones degradation only at high concentration. As a reminder, the Dmax is the largest share of the target that was removed. A low value points to a partial loss of target.

T1 sequence (P01116 1-188 isoform P01116-2 G12C): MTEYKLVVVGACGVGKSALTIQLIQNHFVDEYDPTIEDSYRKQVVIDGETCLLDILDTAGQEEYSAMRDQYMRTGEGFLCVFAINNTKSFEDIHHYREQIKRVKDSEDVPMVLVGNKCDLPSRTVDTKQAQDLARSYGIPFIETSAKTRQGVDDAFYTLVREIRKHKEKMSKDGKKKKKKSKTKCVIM
T2 sequence (P01116 1-188 isoform P01116-2 G12D): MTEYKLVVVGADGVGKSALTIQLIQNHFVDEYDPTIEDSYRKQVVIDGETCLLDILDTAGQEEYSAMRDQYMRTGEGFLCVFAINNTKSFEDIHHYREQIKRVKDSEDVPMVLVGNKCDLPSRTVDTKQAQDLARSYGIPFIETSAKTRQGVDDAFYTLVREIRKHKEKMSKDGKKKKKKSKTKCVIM

`Cc1ncsc1-c1ccc([C@H](C)NC(=O)[C@@H]2C[C@@H](O)CN2C(=O)[C@@H](NC(=O)COCC2CCN(CCOc3nc(N4CC5CCC(C4)N5)c4cnc(-c5cc(O)cc6ccccc56)c(F)c4n3)CC2)C(C)(C)C)cc1` [Compound 23, (2S,4R)-1-[(2S)-2-[[2-[[1-[2-[4-(3,8-diazabicyclo[3.2.1]octan-3-yl)-8-fluoro-7-(3-hydroxy-1-naphthyl)pyrido[4,3-d]pyrimidin-2-yl]oxyethyl]-4-piperidyl]methoxy]acetyl]amino]-3,3-dimethyl-butanoyl]-4-hydroxy-N-[(1S)-1-[4-(4-methylthiazol-5-yl)phenyl]ethyl]pyrrolidine-2-carboxamide]: the values for the DC50 on SW1573 HiBiT-KRASG12C and at AsPC-1 HiBiT-KRASG12D were over 3000 nM and 1000 to 3000 nM, respectively. This compound showed a maximal degradation (Dmax) on AsPC-1 HiBiT-KRASG12D of 20 to 60%.

In the case of `CCc1cccc2cccc(-c3ncc4c(N5CC6CCC(C5)N6)nc(OC[C@]56CCCN5[C@@H](COC(=O)N5CCN(c7cc([C@H](C(=O)N8C[C@H](O)C[C@H]8C(=O)N[C@@H](C)c8ccc(-c9scnc9C)cc8)C(C)C)on7)CC5)CC6)nc4c3F)c12` [Compound 34, [(3R,7aR)-7a-{[(4-{3,8-diazabicyclo[3.2.1]octan-3-yl}-7-(8-ethylnaphthalen-1-yl)-8-fluoropyrido[4,3-d]pyrimidin-2-yl)oxy]methyl}-hexahydro-1H-pyrrolizin-3-yl]methyl 4-{5-[(2R)-1-[(2S,4R)-4-hydroxy-2-{[(1S)-1-[4-(4-methyl-1,3-thiazol-5-yl)phenyl]ethyl]carbamoyl}pyrrolidin-1-yl]-3-methyl-1-oxobutan-2-yl]-1,2-oxazol-3-yl}piperazine-1-carboxylate], the DC50 was over 3000 nM at SW1573 HiBiT-KRASG12C and under 600 nM at AsPC-1 HiBiT-KRASG12D. Besides, the Dmax on AsPC-1 HiBiT-KRASG12D lay in the range of 80 to 100%.

With `CCc1cccc2cccc(-c3ncc4c(N5CC6CCC(C5)N6)nc(OC[C@@]56CCCN5[C@H](COC(=O)N5CCN(c7cc([C@H](C(=O)N8C[C@H](O)C[C@H]8C(=O)N[C@@H](C)c8ccc(-c9scnc9C)cc8)C(C)C)on7)CC5)CC6)nc4c3F)c12` [Compound 35, [(3S,7aS)-7a-{[(4-{3,8-diazabicyclo[3.2.1]octan-3-yl}-7-(8-ethylnaphthalen-1-yl)-8-fluoropyrido[4,3-d]pyrimidin-2-yl)oxy]methyl}-hexahydro-1H-pyrrolizin-3-yl]methyl 4-{5-[(2R)-1-[(2S,4R)-4-hydroxy-2-{[(1S)-1-[4-(4-methyl-1,3-thiazol-5-yl)phenyl]ethyl]carbamoyl}pyrrolidin-1-yl]-3-methyl-1-oxobutan-2-yl]-1,2-oxazol-3-yl}piperazine-1-carboxylate], the DC50 on SW1573 HiBiT-KRASG12C was over 3000 nM; at AsPC-1 HiBiT-KRASG12D, under 600 nM. On AsPC-1 HiBiT-KRASG12D, this compound came in with a Dmax of 80 to 100%.

As to `C#Cc1cccc2cc(O)cc(-c3ncc4c(N5CC6CCC(C5)N6)nc(OCCN5CCC6(CC5)CN(c5cc([C@H](C(=O)N7C[C@H](O)C[C@H]7C(=O)N[C@@H](C)c7ccc(-c8scnc8C)cc7)C(C)C)on5)C6)nc4c3F)c12` [Compound 36, (2S,4R)-1-[(2R)-2-[3-(7-{2-[(4-{3,8-diazabicyclo[3.2.1]octan-3-yl}-7-(8-ethynyl-3-hydroxynaphthalen-1-yl)-8-fluoropyrido[4,3-d]pyrimidin-2-yl)oxy]ethyl}-2,7-diazaspiro[3.5]nonan-2-yl)-1,2-oxazol-5-yl]-3-methylbutanoyl]-4-hydroxy-N-[(1S)-1-[4-(4-methyl-1,3-thiazol-5-yl)phenyl]ethyl]pyrrolidine-2-carboxamide], the DC50 at SW1573 HiBiT-KRASG12C is over 3000 nM. Also, at AsPC-1 HiBiT-KRASG12D, the Dmax fell in the range of 80 to 100% and the DC50 was under 600 nM.

In the case of `Cc1ncsc1-c1ccc([C@H](C)NC(=O)[C@@H]2C[C@@H](O)CN2C(=O)[C@@H](c2cc(N3CCN(C(=O)OC[C@H]4CC[C@@]5(COc6nc(N7CC8CCC(C7)N8)c7cnc(-c8cc(O)cc9ccccc89)c(F)c7n6)CCCN45)CC3)no2)C(C)C)cc1` [Compound 37, [(3R,7aR)-7a-{[(4-{3,8-diazabicyclo[3.2.1]octan-3-yl}-8-fluoro-7-(3-hydroxynaphthalen-1-yl)pyrido[4,3-d]pyrimidin-2-yl)oxy]methyl}-hexahydro-1H-pyrrolizin-3-yl]methyl 4-{5-[(2R)-1-[(2S,4R)-4-hydroxy-2-{[(1S)-1-[4-(4-methyl-1,3-thiazol-5-yl)phenyl]ethyl]carbamoyl}pyrrolidin-1-yl]-3-methyl-1-oxobutan-2-yl]-1,2-oxazol-3-yl}piperazine-1-carboxylate], the DC50 at SW1573 HiBiT-KRASG12C is over 3000 nM. Besides, at AsPC-1 HiBiT-KRASG12D, the Dmax was 80 to 100% and the DC50 is under 600 nM.

`CCc1cccc2cc(O)cc(-c3ncc4c(N5CC6CCC(C5)N6)nc(OC[C@]56CCCN5[C@@H](COc5cc(C(C(=O)N7C[C@H](O)C[C@H]7C(=O)N[C@@H](C)c7ccc(-c8scnc8C)cc7)C(C)C)on5)CC6)nc4c3F)c12` (stereo partly drawn) [Compound 38, (2S,4R)-1-[2-(3-{[(3R,7aR)-7a-{[(4-{3,8-diazabicyclo[3.2.1]octan-3-yl}-7-(8-ethyl-3-hydroxynaphthalen-1-yl)-8-fluoropyrido[4,3-d]pyrimidin-2-yl)oxy]methyl}-hexahydro-1H-pyrrolizin-3-yl]methoxy}-1,2-oxazol-5-yl)-3-methylbutanoyl]-4-hydroxy-N-[(1S)-1-[4-(4-methyl-1,3-thiazol-5-yl)phenyl]ethyl]pyrrolidine-2-carboxamide]: the DC50 is 1000 to 3000 nM on SW1573 HiBiT-KRASG12C and under 600 nM at AsPC-1 HiBiT-KRASG12D. Also, the Dmax at SW1573 HiBiT-KRASG12C fell in the range of 20 to 60%; on AsPC-1 HiBiT-KRASG12D, 80 to 100%.

For the compound `C#Cc1c(F)ccc2cc(O)cc(-c3ncc4c(N5CC6CCC(C5)N6)nc(OCCN5CCC(COc6cc([C@H](C(=O)N7C[C@H](O)C[C@H]7C(=O)N[C@@H](C)c7ccc(-c8scnc8C)cc7)C(C)C)on6)CC5)nc4c3F)c12` [Compound 39, (2S,4R)-1-[(2R)-2-{3-[(1-{2-[(4-{3,8-diazabicyclo[3.2.1]octan-3-yl}-7-(8-ethynyl-7-fluoro-3-hydroxynaphthalen-1-yl)-8-fluoropyrido[4,3-d]pyrimidin-2-yl)oxy]ethyl}piperidin-4-yl)methoxy]-1,2-oxazol-5-yl}-3-methylbutanoyl]-4-hydroxy-N-[(1S)-1-[4-(4-methyl-1,3-thiazol-5-yl)phenyl]ethyl]pyrrolidine-2-carboxamide], the DC50 on SW1573 HiBiT-KRASG12C is 1000 to 3000 nM; at AsPC-1 HiBiT-KRASG12D it was under 600 nM. The Dmax at SW1573 HiBiT-KRASG12C lay within 20 to 60%; on AsPC-1 HiBiT-KRASG12D, 80 to 100%.

On SW1573 HiBiT-KRASG12C, `Cc1ncsc1-c1ccc([C@H](C)NC(=O)[C@@H]2C[C@@H](O)CN2C(=O)[C@@H](c2cc(OCC3CCN(CCOc4nc(N5CC6CCC(C5)N6)c5cnc(-c6cc(O)cc7cccc(Cl)c67)c(F)c5n4)CC3)no2)C(C)C)cc1` [Compound 40, (2S,4R)-1-[(2R)-2-(3-{[1-(2-{[7-(8-chloro-3-hydroxynaphthalen-1-yl)-4-{3,8-diazabicyclo[3.2.1]octan-3-yl}-8-fluoropyrido[4,3-d]pyrimidin-2-yl]oxy}ethyl)piperidin-4-yl]methoxy}-1,2-oxazol-5-yl)-3-methylbutanoyl]-4-hydroxy-N-[(1S)-1-[4-(4-methyl-1,3-thiazol-5-yl)phenyl]ethyl]pyrrolidine-2-carboxamide] displayed a DC50 of over 3000 nM. Moreover, at AsPC-1 HiBiT-KRASG12D, the Dmax lay within 80 to 100% and the DC50 was under 600 nM.

Turning to `Cc1ncsc1-c1ccc([C@H](C)NC(=O)[C@@H]2C[C@@H](O)CN2C(=O)[C@@H](c2cc(OCC3CCN(CCOc4nc(N5CC6CCC(C5)N6)c5cnc(-c6cc(O)cc(Cl)c6C(C)C)c(F)c5n4)CC3)no2)C(C)C)cc1` [Compound 41, (2S,4R)-1-[(2R)-2-[3-({1-[2-({7-[3-chloro-5-hydroxy-2-(propan-2-yl)phenyl]-4-{3,8-diazabicyclo[3.2.1]octan-3-yl}-8-fluoropyrido[4,3-d]pyrimidin-2-yl}oxy)ethyl]piperidin-4-yl}methoxy)-1,2-oxazol-5-yl]-3-methylbutanoyl]-4-hydroxy-N-[(1S)-1-[4-(4-methyl-1,3-thiazol-5-yl)phenyl]ethyl]pyrrolidine-2-carboxamide], on SW1573 HiBiT-KRASG12C, the DC50 was over 3000 nM and the Dmax fell in the range of 20 to 60%. At AsPC-1 HiBiT-KRASG12D, the Dmax lay within 20 to 60% and the DC50 is under 600 nM.

On to `CCc1cccc2cc(O)cc(-c3ncc4c(N5CCCCCC5)nc(OC[C@@]56CCCN5[C@H](COC(=O)N5CCN(c7cc([C@H](C(=O)N8C[C@H](O)C[C@H]8C(=O)N[C@@H](C)c8ccc(-c9scnc9C)cc8)C(C)C)on7)CC5)CC6)nc4c3F)c12` [Compound 42, [(3S,7aS)-7a-({[4-(azepan-1-yl)-7-(8-ethyl-3-hydroxynaphthalen-1-yl)-8-fluoropyrido[4,3-d]pyrimidin-2-yl]oxy}methyl)-hexahydro-1H-pyrrolizin-3-yl]methyl 4-{5-[(2R)-1-[(2S,4R)-4-hydroxy-2-{[(1S)-1-[4-(4-methyl-1,3-thiazol-5-yl)phenyl]ethyl]carbamoyl}pyrrolidin-1-yl]-3-methyl-1-oxobutan-2-yl]-1,2-oxazol-3-yl}piperazine-1-carboxylate], for which, at SW1573 HiBiT-KRASG12C, the DC50 is at most 600 nM and the maximal degradation (Dmax) is 80 to 100%. Besides, at AsPC-1 HiBiT-KRASG12D, the greatest degradation seen (Dmax) was in the range of 80 to 100% and the DC50 was under 600 nM.
